± gives the expanded uncertainty stated by the source.
Legend:
[1] = refractive index (Na D-line) (dimensionless); conditions: 293.1 K; 101.33 kPa; Liquid; Standard Abbe refractometry
[2] = Liquid

Structure (SMILES) | refractive index [1] | vapor or sublimation pressure ([2]; 293.15 K) [kPa] | vapor or sublimation pressure ([2]; 303.15 K) [kPa] | vapor or sublimation pressure ([2]; 313.15 K) [kPa] | vapor or sublimation pressure ([2]; 323.15 K) [kPa] | vapor or sublimation pressure ([2]; 333.15 K) [kPa] | vapor or sublimation pressure ([2]; 343.15 K) [kPa] | vapor or sublimation pressure ([2]; 353.15 K) [kPa] | vapor or sublimation pressure ([2]; 363.15 K) [kPa] | vapor or sublimation pressure ([2]; 369.15 K) [kPa] | vapor or sublimation pressure ([2]; 323.1 K) [kPa] | vapor or sublimation pressure ([2]; 333.05 K) [kPa] | vapor or sublimation pressure ([2]; 343 K) [kPa] | vapor or sublimation pressure ([2]; 352.9 K) [kPa] | vapor or sublimation pressure ([2]; 358.15 K) [kPa] | vapor or sublimation pressure ([2]; 358.45 K) [kPa] | vapor or sublimation pressure ([2]; 361.15 K) [kPa] | vapor or sublimation pressure ([2]; 364.15 K) [kPa] | vapor or sublimation pressure ([2]; 367.15 K) [kPa]
CC(Cl)CCl (stereo not drawn) [1,2-dichloropropane] | 1.4383 ± 0.0007 |  |  |  |  |  |  |  |  |  |  |  |  |  |  |  |  |  | 
CC(O)CCl (stereo not drawn) [1-chloro-2-propanol] | 1.4377 ± 0.0007 | 1.199 ± 0.99 | 2.225 ± 1.1 | 3.981 ± 1.3 | 6.662 ± 1.7 | 10.88 ± 2.4 | 17.2 ± 3.3 | 26.48 ± 4.7 | 39.8 ± 6.7 | 50.1 ± 8.2 |  |  |  |  |  |  |  |  | 
CC(C)(Cl)OC(C)(C)Cl [propane, 2,2'-oxybis[2-chloro-] | 1.4473 ± 0.0007 |  | 0.24 ± 0.18 | 0.564 ± 0.34 |  |  |  |  |  |  | 0.867 ± 0.49 | 1.28 ± 0.7 | 1.919 ± 0.69 | 2.822 ± 0.78 | 3.673 ± 0.87 | 3.348 ± 0.83 | 4.237 ± 0.92 | 4.806 ± 0.97 | 5.477 ± 1

Reference: the NIST ThermoML archive (doi:10.1021/je800122x)
